Assay results published in ChEMBL document CHEMBL1156582, “Synthesis and structure-activity relationships of selective norepinephrine reuptake inhibitors (sNRI) with a heterocyclic ring constraint” (Bioorg Med Chem Lett, 2008).

What was measured:
Assay type in all cases: cell-based, HEK293
[1] = molecular target: Sodium-dependent serotonin transporter (Homo sapiens, UniProt P31645);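 further: test system: HEK cells expressing the human transporter, read-out is block of serotonin uptake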
[2] = molecular target: Sodium-dependent noradrenaline transporter (Homo sapiens, UniProt P23975); assay: Inhibition of norepinephrine uptake at human NET expressed in HEK cells
Sequence of Sodium-dependent noradrenaline transporter (P23975 whole entry): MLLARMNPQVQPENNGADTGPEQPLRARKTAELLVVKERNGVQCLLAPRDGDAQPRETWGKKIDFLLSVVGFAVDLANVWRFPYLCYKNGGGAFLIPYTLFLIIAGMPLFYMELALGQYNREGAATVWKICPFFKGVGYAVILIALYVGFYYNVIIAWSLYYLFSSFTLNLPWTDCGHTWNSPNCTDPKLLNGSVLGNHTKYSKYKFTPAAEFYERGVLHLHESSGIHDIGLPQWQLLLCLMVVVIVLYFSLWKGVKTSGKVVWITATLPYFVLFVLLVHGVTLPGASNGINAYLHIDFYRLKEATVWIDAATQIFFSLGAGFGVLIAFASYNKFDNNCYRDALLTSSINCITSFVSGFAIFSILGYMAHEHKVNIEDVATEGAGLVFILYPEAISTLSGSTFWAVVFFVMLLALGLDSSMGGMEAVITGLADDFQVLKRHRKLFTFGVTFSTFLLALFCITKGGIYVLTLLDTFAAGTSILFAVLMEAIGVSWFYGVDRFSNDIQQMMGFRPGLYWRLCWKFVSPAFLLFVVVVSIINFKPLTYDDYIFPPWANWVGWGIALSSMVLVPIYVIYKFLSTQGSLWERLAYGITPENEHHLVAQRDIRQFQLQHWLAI

[3] = molecular target: Sodium-dependent dopamine transporter (Homo sapiens, UniProt Q01959); assay: Inhibition of dopamine uptake at human DAT expressed in HEK cells
Sequence of Sodium-dependent dopamine transporter (Q01959 whole entry): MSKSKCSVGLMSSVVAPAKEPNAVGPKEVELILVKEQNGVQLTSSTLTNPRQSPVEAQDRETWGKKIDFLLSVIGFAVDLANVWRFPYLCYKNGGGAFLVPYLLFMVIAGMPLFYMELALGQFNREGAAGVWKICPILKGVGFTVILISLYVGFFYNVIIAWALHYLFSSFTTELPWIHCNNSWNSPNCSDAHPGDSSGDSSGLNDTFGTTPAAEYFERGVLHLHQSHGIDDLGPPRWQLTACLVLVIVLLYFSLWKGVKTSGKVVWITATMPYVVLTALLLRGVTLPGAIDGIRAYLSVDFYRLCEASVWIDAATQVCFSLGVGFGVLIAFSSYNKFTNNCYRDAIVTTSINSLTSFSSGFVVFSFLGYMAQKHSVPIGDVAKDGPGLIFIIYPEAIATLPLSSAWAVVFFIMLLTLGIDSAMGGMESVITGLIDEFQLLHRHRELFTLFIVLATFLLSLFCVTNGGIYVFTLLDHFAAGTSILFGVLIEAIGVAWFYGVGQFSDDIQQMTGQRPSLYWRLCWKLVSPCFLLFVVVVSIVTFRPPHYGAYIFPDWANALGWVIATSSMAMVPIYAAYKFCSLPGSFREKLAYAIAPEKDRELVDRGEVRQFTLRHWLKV

Sequence of Sodium-dependent serotonin transporter (P31645 whole entry): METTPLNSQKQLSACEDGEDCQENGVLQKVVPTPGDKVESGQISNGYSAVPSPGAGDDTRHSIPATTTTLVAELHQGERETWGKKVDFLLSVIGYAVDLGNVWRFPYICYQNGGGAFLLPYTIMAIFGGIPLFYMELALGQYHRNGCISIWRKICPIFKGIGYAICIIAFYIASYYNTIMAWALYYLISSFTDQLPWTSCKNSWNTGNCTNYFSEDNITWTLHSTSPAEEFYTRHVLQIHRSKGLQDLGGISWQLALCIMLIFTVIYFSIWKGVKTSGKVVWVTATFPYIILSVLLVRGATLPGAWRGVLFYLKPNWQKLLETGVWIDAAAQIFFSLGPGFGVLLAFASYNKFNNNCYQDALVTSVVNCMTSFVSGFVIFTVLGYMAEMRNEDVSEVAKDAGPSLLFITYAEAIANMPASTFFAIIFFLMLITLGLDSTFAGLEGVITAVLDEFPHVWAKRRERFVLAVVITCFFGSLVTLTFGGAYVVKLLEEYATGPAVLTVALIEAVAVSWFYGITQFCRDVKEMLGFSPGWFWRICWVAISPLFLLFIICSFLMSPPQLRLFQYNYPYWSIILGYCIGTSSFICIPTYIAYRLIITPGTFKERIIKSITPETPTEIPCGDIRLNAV

Cc1ccccc1O[C@H]1c2ccccc2OC[C@H]1CN(C)C
IC50 [1]: 1100 nM
IC50 [2]: 700 nM
IC50 [3]: > 10000 nM

CNC[C@@H]1Cc2ccccc2[C@@H]1Oc1ccccc1C
IC50 [1]: 1600 nM
IC50 [2]: 10 nM
IC50 [3]: 5300 nM

CCOc1ccccc1O[C@H]1c2ccccc2CO[C@@H]1CNC
IC50 [1]: > 10000 nM
IC50 [2]: 240 nM
IC50 [3]: > 10000 nM

CNC[C@H]1OCc2ccccc2[C@@H]1Oc1ccccc1SC
IC50 [1]: 640 nM
IC50 [2]: 45 nM
IC50 [3]: 4000 nM

CNC[C@@H]1OCc2ccccc2[C@@H]1Oc1ccccc1SC
IC50 [1]: 6000 nM
IC50 [2]: 14 nM
IC50 [3]: > 10000 nM

CN(C)C[C@@H]1Cc2ccccc2[C@@H]1Oc1ccc(C(F)(F)F)cc1
IC50 [1]: 230 nM
IC50 [2]: 4500 nM
IC50 [3]: > 10000 nM

CNC[C@H]1Cc2ccccc2[C@@H]1Oc1ccccc1C
IC50 [1]: 1500 nM
IC50 [2]: 35 nM
IC50 [3]: > 10000 nM

CNC[C@@H]1Cc2ccccc2[C@@H]1Oc1ccc(C(F)(F)F)cc1
IC50 [1]: 190 nM
IC50 [2]: 880 nM
IC50 [3]: > 10000 nM

CNC[C@@H]1OCc2ccccc2[C@@H]1Oc1cccc(Cl)c1C
IC50 [1]: 100 nM
IC50 [2]: 9 nM
IC50 [3]: 1400 nM

CNC[C@@H]1OCc2ccccc2[C@@H]1Oc1ccc(F)cc1C
IC50 [1]: 150 nM
IC50 [2]: 13 nM
IC50 [3]: > 10000 nM

CNC[C@@H]1OCc2ccccc2[C@@H]1Oc1cc(F)ccc1C
IC50 [1]: 4000 nM
IC50 [2]: 11 nM
IC50 [3]: > 10000 nM

CNC[C@@H]1CSc2ccccc2[C@@H]1Oc1ccccc1Cl
IC50 [1]: 3600 nM
IC50 [2]: 145 nM
IC50 [3]: > 10000 nM

CNC[C@@H]1SCc2ccccc2[C@@H]1Oc1ccccc1Cl
IC50 [1]: 2700 nM
IC50 [2]: 140 nM
IC50 [3]: > 10000 nM

CCc1ccccc1O[C@H]1c2ccccc2CO[C@H]1CNC
IC50 [1]: 4500 nM
IC50 [2]: 15 nM
IC50 [3]: > 10000 nM

CNC[C@H]1CS(=O)(=O)c2ccccc2[C@@H]1Oc1ccccc1C
IC50 [1]: 10000 nM
IC50 [2]: 8000 nM
IC50 [3]: > 10000 nM

Cc1ccccc1O[C@H]1c2ccccc2C[C@H]1CN(C)C
IC50 [1]: 6500 nM
IC50 [2]: 5000 nM
IC50 [3]: > 10000 nM

CCc1ccccc1O[C@H]1c2ccccc2CO[C@@H]1CNC
IC50 [1]: 3000 nM
IC50 [2]: 36 nM
IC50 [3]: > 10000 nM

CNC[C@H]1CSc2ccccc2[C@@H]1Oc1ccccc1C
IC50 [1]: 3100 nM
IC50 [2]: 430 nM
IC50 [3]: 7500 nM

CNC[C@@H]1Cc2ccccc2[C@@H]1Oc1cccc2ccccc12
IC50 [1]: 140 nM
IC50 [2]: 30 nM
IC50 [3]: 5700 nM

CNC[C@H]1OCc2ccccc2[C@@H]1Oc1ccccc1OC
IC50 [1]: > 10000 nM
IC50 [2]: 480 nM
IC50 [3]: > 10000 nM

CNC[C@H]1Cc2ccccc2[C@@H]1Oc1cccc2ccccc12
IC50 [1]: 90 nM
IC50 [2]: 400 nM
IC50 [3]: 4000 nM

CNC[C@@H]1OCc2ccccc2[C@@H]1Oc1ccccc1F
IC50 [1]: 3100 nM
IC50 [2]: 75 nM
IC50 [3]: > 10000 nM

CCc1cccc(F)c1O[C@H]1c2ccccc2CO[C@H]1CNC
IC50 [1]: 1400 nM
IC50 [2]: 8 nM
IC50 [3]: > 10000 nM
